Results from ChEMBL document CHEMBL3217569, “N-(5-substituted thiazol-2-yl)-2-aryl-3-(tetrahydro-2H-pyran-4-yl) propanamides as glucokinase activators” (Medchemcomm, 2011).

Target: T1, Hexokinase-4 (Homo sapiens, UniProt P35557)
T1 sequence (P35557 whole entry): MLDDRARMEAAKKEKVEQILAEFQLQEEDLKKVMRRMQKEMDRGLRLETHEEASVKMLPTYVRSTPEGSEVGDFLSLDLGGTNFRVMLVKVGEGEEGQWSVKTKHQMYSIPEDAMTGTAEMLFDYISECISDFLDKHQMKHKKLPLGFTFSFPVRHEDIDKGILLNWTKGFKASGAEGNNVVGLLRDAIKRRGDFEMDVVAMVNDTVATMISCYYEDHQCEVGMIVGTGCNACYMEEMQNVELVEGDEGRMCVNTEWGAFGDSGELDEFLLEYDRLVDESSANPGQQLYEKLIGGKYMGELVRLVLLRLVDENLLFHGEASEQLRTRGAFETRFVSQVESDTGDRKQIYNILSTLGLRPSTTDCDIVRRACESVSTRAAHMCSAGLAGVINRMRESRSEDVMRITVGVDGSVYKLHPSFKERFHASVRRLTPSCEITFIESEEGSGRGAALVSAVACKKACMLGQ
Experiment: Activation of recombinant human His6-tagged glucokinase by G6PDH-coupled spectrophotometry

Structure (SMILES) | EC50 [nM]
O=C(Nc1ncc(-c2cn(CCO)nn2)s1)[C@H](CC1CCOCC1)c1ccc(S(=O)(=O)C2CC2)cc1 | 220
COC(=O)[C@H](CC(C)C)NC(=O)c1cnc(NC(=O)C(CC2CCOCC2)c2ccc(S(=O)(=O)C3CC3)cc2)s1 (mixture of isomers) | 1520
COC(=O)[C@@H](NC(=O)c1cnc(NC(=O)C(CC2CCOCC2)c2ccc(S(=O)(=O)C3CC3)cc2)s1)C(C)C (mixture of isomers) | 1440
CC(C)[C@H](NC(=O)c1cnc(NC(=O)C(CC2CCOCC2)c2ccc(S(=O)(=O)C3CC3)cc2)s1)C(=O)O (mixture of isomers) | 11300
CC(C)C[C@H](NC(=O)c1cnc(NC(=O)C(CC2CCOCC2)c2ccc(S(=O)(=O)C3CC3)cc2)s1)C(=O)O (mixture of isomers) | > 20000
COC(=O)CCNC(=O)c1cnc(NC(=O)C(CC2CCOCC2)c2ccc(S(=O)(=O)C3CC3)cc2)s1 (racemic) | 520
O=C(O)CCNC(=O)c1cnc(NC(=O)C(CC2CCOCC2)c2ccc(S(=O)(=O)C3CC3)cc2)s1 (racemic) | 1800
CCOC(=O)CCCn1cc(-c2cnc(NC(=O)C(CC3CCOCC3)c3ccc(S(=O)(=O)C4CC4)cc3)s2)nn1 (racemic) | 450
CCOC(=O)CCn1cc(-c2cnc(NC(=O)C(CC3CCOCC3)c3ccc(S(=O)(=O)C4CC4)cc3)s2)nn1 (racemic) | 350
O=C(O)CCn1cc(-c2cnc(NC(=O)C(CC3CCOCC3)c3ccc(S(=O)(=O)C4CC4)cc3)s2)nn1 (racemic) | 1350
CCOC(=O)Cn1cc(-c2cnc(NC(=O)C(CC3CCOCC3)c3ccc(S(=O)(=O)C4CC4)cc3)s2)nn1 (racemic) | 330
CNC(=O)Cn1cc(-c2cnc(NC(=O)C(CC3CCOCC3)c3ccc(S(=O)(=O)C4CC4)cc3)s2)nn1 (racemic) | 170
CCNC(=O)Cn1cc(-c2cnc(NC(=O)C(CC3CCOCC3)c3ccc(S(=O)(=O)C4CC4)cc3)s2)nn1 (racemic) | > 20000
O=C(Cn1cc(-c2cnc(NC(=O)C(CC3CCOCC3)c3ccc(S(=O)(=O)C4CC4)cc3)s2)nn1)NC1CC1 (racemic) | > 20000
CN(C)C(=O)Cn1cc(-c2cnc(NC(=O)C(CC3CCOCC3)c3ccc(S(=O)(=O)C4CC4)cc3)s2)nn1 (racemic) | 300
CCN(CC)C(=O)Cn1cc(-c2cnc(NC(=O)C(CC3CCOCC3)c3ccc(S(=O)(=O)C4CC4)cc3)s2)nn1 (racemic) | 210
CN1CCN(C(=O)Cn2cc(-c3cnc(NC(=O)C(CC4CCOCC4)c4ccc(S(=O)(=O)C5CC5)cc4)s3)nn2)CC1 (racemic) | 790
O=C(Nc1ncc(-c2cn(CC(=O)N3CCOCC3)nn2)s1)C(CC1CCOCC1)c1ccc(S(=O)(=O)C2CC2)cc1 (racemic) | 640
O=C(Nc1ncc(-c2cn(CCOCc3ccccc3)nn2)s1)C(CC1CCOCC1)c1ccc(S(=O)(=O)C2CC2)cc1 (racemic) | 290
O=C(Nc1ncc(-c2cn(CCO)nn2)s1)C(CC1CCOCC1)c1ccc(S(=O)(=O)C2CC2)cc1 (racemic) | 180
